{"source": "patent US8247211B2", "about": "“Glycopeptide antibiotics” (American Cyanamid Company, priority 2001, dated 2012)", "key": {"Streptococcus sp.": {"tested_on": "Streptococcus sp.", "experiment": "In vitro antibacterial evaluation: minimum inhibitory concentration (MIC), broth dilution method", "type": "cell-based", "conditions": "broth dilution, 5×10^5 CFU/mL, 18 hours at 35° C.", "outline": "(§1)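 NCCLS M7-A2 broth dilution with Mueller-Hinton II, testing 64-0.06 μg/mL antibiotic against 5×10^5 CFU/mL inocula. Test strains include recent methicillin-, penicillin- or vancomycin-resistant clinical isolates. MIC is the lowest concentration preventing growth.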"}, "Escherichia coli": {"tested_on": "Escherichia coli", "experiment": "In vitro antibacterial evaluation: minimum inhibitory concentration (MIC), broth dilution method", "type": "cell-based", "conditions": "5×10^5 CFU/mL, 18 hours at 35° C.", "outline": "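First, organisms are seeded at 5×10^5 CFU/mL into Muller-Hinton II […]. Next, antibiotic is applied across 64-0.06 μg/mL by broth dilution (NCCLS M7-A2). Finally, the lowest inhibitory concentration is recorded as MIC.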"}, "Enterococcus sp.": {"tested_on": "Enterococcus sp.", "experiment": "In vitro antibacterial evaluation: minimum inhibitory concentration (MIC), broth dilution method", "type": "cell-based", "conditions": "broth dilution, 5×10^5 CFU/mL, 18 hours at 35° C.", "outline": "as §1"}, "Staphylococcus sp.": {"tested_on": "Staphylococcus sp.", "experiment": "In vitro antibacterial evaluation: minimum inhibitory concentration (MIC), broth dilution method", "type": "cell-based", "conditions": "for MIC Staphylococcus aureus (ATCC 29213): strain ATCC 29213; for MIC Staphylococcus aureus (GC 1131): strain GC 1131; for MIC Staphylococcus aureus (GC 4541): strain GC 4541; for MIC Staphylococcus aureus (GC 4542): strain GC 4542; for MIC Staphylococcus aureus-SMITH (GC 4543): strain GC 4543; for MIC Staphylococcus aureus (GC 4544): strain GC 4544; for MIC Staphylococcus aureus (GC 4545): strain GC 4545; for MIC Staphylococcus haemolyticus (GC 4546): strain GC 4546; for MIC Coagulase Negative Staphylococcus (GC 4547): strain GC 4547; for MIC Coagulase Negative Staphylococcus (GC 4548): strain GC 4548; for MIC Coagulase Negative Staphylococcus (GC 4549): strain GC 4549; for MIC Coagulase Negative Staphylococcus (GC 4551): strain GC 4551; for MIC Coagulase Negative Staphylococcus (ID-3941): strain ID-3941", "outline": "as §1"}, "[1]": {"tested_on": "Streptococcus pneumoniae (GC 1894), penicillin resistant strain", "experiment": "Acute lethal infection in mice (ED50)", "type": "in vivo", "conditions": "female CD-1 mice, intraperitoneal challenge, intravenous dose 30 min. after infection, 7 day survival ratios", "outline": "(§2)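 Median effective dose is calculated from 7-day survival ratios pooled across three separate tests. Mice (female CD-1) receive an intraperitoneal bacterial challenge in broth or hog gastric mucin, then intravenous drug 30 min later, five animals per dose level.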"}, "[2]": {"tested_on": "Staphylococcus aureus-SMITH (GC 4543)", "experiment": "Acute lethal infection in mice (ED50)", "type": "in vivo", "conditions": "female CD-1 mice, intraperitoneal challenge, intravenous dose 30 min. after infection, 7 day survival ratios", "outline": "as §2"}, "[3]": {"tested_on": "Enterococcus faecalis (GC 6189), vancomycin resistant strain", "experiment": "Acute lethal infection in mice (ED50)", "type": "in vivo", "conditions": "female CD-1 mice, intraperitoneal challenge, intravenous dose 30 min. after infection, 7 day survival ratios", "outline": "as §2"}, "[4]": {"conditions": "broth dilution, 18 hours at 35° C."}}, "data": [{"smiles": "CCCC(C)C1OCC2OC(OC3C(CO)OC(Oc4ccc(CC5NC(=O)C(C(C)c6ccccc6)NC(=O)CNC(=O)C(CO)NC(=O)C(C(O)C6CNC(=N)N6C6OC(CO)C(O)C(O)C6O)NC(=O)C(C(O)C6CNC(=N)N6)NC5=O)cc4)C(O)C3O)C(O)C(O)C2O1", "note": "(stereo not drawn) [Example 111]", "values": [{"measurement": "MIC Streptococcus agalactiae (GC 4564)", "setting": "Streptococcus sp.", "value": 1, "unit": "µg/mL"}, {"measurement": "MIC Streptococcus pneumoniae (GC 4565)", "setting": "Streptococcus sp.", "value": 0.5, "unit": "µg/mL"}, {"measurement": "MIC Streptococcus pyogenes (ID-3187)", "setting": "Streptococcus sp.", "value": 0.5, "unit": "µg/mL"}, {"measurement": "MIC Escherichia coli (ATCC 25922)", "setting": "Escherichia coli", "value": 32, "unit": "µg/mL"}, {"measurement": "MIC Enterococccus avium (GC 4558)", "setting": "Enterococcus sp.", "value": 2, "unit": "µg/mL"}, {"measurement": "MIC Enterococccus faecalis (ATCC 29212)", "setting": "Enterococcus sp.", "value": 2, "unit": "µg/mL"}, {"measurement": "MIC Enterococccus faecalis (GC 4552)", "setting": "Enterococcus sp.", "value": 2, "unit": "µg/mL"}, {"measurement": "MIC Enterococccus faecalis (GC 4553)", "setting": "Enterococcus sp.", "value": 2, "unit": "µg/mL"}, {"measurement": "MIC Enterococccus faecalis (GC 4554)", "setting": "Enterococcus sp.", "value": 2, "unit": "µg/mL"}, {"measurement": "MIC Enterococccus faecium (GC 2243)", "setting": "Enterococcus sp.", "value": 1, "unit": "µg/mL"}, {"measurement": "MIC Enterococccus faecium (GC 4556)", "setting": "Enterococcus sp.", "value": 2, "unit": "µg/mL"}, {"measurement": "MIC Enterococccus faecium (GC 4557)", "setting": "Enterococcus sp.", "value": 0.5, "unit": "µg/mL"}, {"measurement": "MIC Enterococcus faecalis (GC 2242)", "setting": "Enterococcus sp.", "value": 1, "unit": "µg/mL"}, {"measurement": "MIC Staphylococcus aureus (ATCC 29213)", "setting": "Staphylococcus sp.", "value": 1, "unit": "µg/mL"}, {"measurement": "MIC Staphylococcus aureus (ATCC 29213)", "setting": "Staphylococcus sp.; [4]", "value": 1, "unit": "µg/mL"}, {"measurement": "MIC Staphylococcus aureus (GC 1131)", "setting": "Staphylococcus sp.", "value": 1, "unit": "µg/mL"}, {"measurement": "MIC Staphylococcus aureus (GC 1131)", "setting": "Staphylococcus sp.; [4]", "value": 1, "unit": "µg/mL"}, {"measurement": "MIC Staphylococcus aureus (GC 4541)", "setting": "Staphylococcus sp.", "value": 1, "unit": "µg/mL"}, {"measurement": "MIC Staphylococcus aureus (GC 4541)", "setting": "Staphylococcus sp.; [4]", "value": 1, "unit": "µg/mL"}, {"measurement": "MIC Staphylococcus aureus (GC 4542)", "setting": "Staphylococcus sp.", "value": 1, "unit": "µg/mL"}, {"measurement": "MIC Staphylococcus aureus (GC 4542)", "setting": "Staphylococcus sp.; [4]", "value": 1, "unit": "µg/mL"}, {"measurement": "MIC Staphylococcus aureus-SMITH (GC 4543)", "setting": "Staphylococcus sp.; 18 hours at 35° C.", "value": 1, "unit": "µg/mL"}, {"measurement": "MIC Staphylococcus aureus-SMITH (GC 4543)", "setting": "Staphylococcus sp.; [4]", "value": 1, "unit": "µg/mL"}, {"measurement": "MIC Staphylococcus aureus (GC 4544)", "setting": "Staphylococcus sp.", "value": 1, "unit": "µg/mL"}, {"measurement": "MIC Staphylococcus aureus (GC 4544)", "setting": "Staphylococcus sp.; [4]", "value": 1, "unit": "µg/mL"}, {"measurement": "MIC Staphylococcus aureus (GC 4545)", "setting": "Staphylococcus sp.", "value": 1, "unit": "µg/mL"}, {"measurement": "MIC Staphylococcus aureus (GC 4545)", "setting": "Staphylococcus sp.; [4]", "value": 1, "unit": "µg/mL"}, {"measurement": "MIC Staphylococcus haemolyticus (GC 4546)", "setting": "Staphylococcus sp.", "value": 1, "unit": "µg/mL"}, {"measurement": "MIC Staphylococcus haemolyticus (GC 4546)", "setting": "Staphylococcus sp.; [4]", "value": 1, "unit": "µg/mL"}, {"measurement": "MIC Coagulase Negative Staphylococcus (GC 4547)", "setting": "Staphylococcus sp.", "value": 0.5, "unit": "µg/mL"}, {"measurement": "MIC Coagulase Negative Staphylococcus (GC 4547)", "setting": "Staphylococcus sp.; [4]", "value": 0.5, "unit": "µg/mL"}, {"measurement": "MIC Coagulase Negative Staphylococcus (GC 4548)", "setting": "Staphylococcus sp.", "value": 1, "unit": "µg/mL"}, {"measurement": "MIC Coagulase Negative Staphylococcus (GC 4548)", "setting": "Staphylococcus sp.; [4]", "value": 1, "unit": "µg/mL"}, {"measurement": "MIC Coagulase Negative Staphylococcus (GC 4549)", "setting": "Staphylococcus sp.", "value": 0.5, "unit": "µg/mL"}, {"measurement": "MIC Coagulase Negative Staphylococcus (GC 4549)", "setting": "Staphylococcus sp.; [4]", "value": 0.5, "unit": "µg/mL"}, {"measurement": "MIC Coagulase Negative Staphylococcus (GC 4551)", "setting": "Staphylococcus sp.", "value": 1, "unit": "µg/mL"}, {"measurement": "MIC Coagulase Negative Staphylococcus (GC 4551)", "setting": "Staphylococcus sp.; [4]", "value": 1, "unit": "µg/mL"}, {"measurement": "MIC Coagulase Negative Staphylococcus (ID-3941)", "setting": "Staphylococcus sp.", "value": 1, "unit": "µg/mL"}, {"measurement": "MIC Coagulase Negative Staphylococcus (ID-3941)", "setting": "Staphylococcus sp.; [4]", "value": 1, "unit": "µg/mL"}, {"measurement": "median effective dose (ED50), Streptococcus pneumoniae (GC 1894)", "setting": "[1]", "value": 0.03, "unit": "mg/kg"}, {"measurement": "median effective dose (ED50), Staphylococcus aureus-SMITH (GC 4543)", "setting": "[2]", "value": 0.14, "unit": "mg/kg"}, {"measurement": "median effective dose (ED50), Enterococcus faecalis (GC 6189)", "setting": "[3]", "value": 0.28, "unit": "mg/kg"}]}]}
